According to patent US9598349B2, “Quinone based nitric oxide donating compounds for ophthalmic use” (NICOX SCIENCE IRELAND, priority 2013, dated 2017):
Where two headings read alike, the source gives them in different places. Each block holds one molecule with its values, some of them ahead of it.

Columns and labels:
[1] = tested on: lipidic peroxidation of membrane lipids in rat hepatic microsomes; assay: In vitro antioxidant activity (TBARS test); format: biochemical; conditions: read-out: Antioxidant activity IC50 μM (CL 95%)
Method: The antioxidant properties of compound (1) (example 1), its precursors (3-methyl-3-(2,4,5-trimethyl-3,6-dioxocyclohexa-1,4-dien-1-yl)butanoic acid, described in Example 1 Step 2 (Intermediate 2) and reference antioxidant compounds were assessed after NADPH-induced lipidic peroxidation of membrane lipids in rat hepatic microsomes using the detection of 2-thiobarbituric acid reactive substances (TBARS) by visible spectroscopy.
Hepatic microsomal membranes from male Wistar rats (200-250 g) were prepared by differential centrifugation (8000 g, 20 min; 120000 g, 1 h) in a HEPES/sucrose buffer (10 mM, 250 mM, pH 7.4) and stored at −80° C. Incubation was performed at 37° C. in a Tris-HCl/KCl (100 mM/150 mM, pH 7.4) containing microsomal membranes (2 mg prot/mL), sodium ascorbate (100 μM), and DMSO solutions of the tested compounds.
Lipid peroxidation was initiated by adding ADP-FeCl3 and NADPH (Method A) or 2.5 μM FeSO4 (Method B) (as described by Boschi D. et al., J. Med. Chem. 2006, 49:2886-2897). Aliquots were taken from the incubation mixture at 5, 15, and 30 min and treated with trichloroacetic acid (TCA) 10% w/v.
Lipid peroxidation was assessed by spectrophotometric (543 nm) determination of the TBARS consisting mainly of malondialdehyde (MDA). TBARS concentrations (expressed in nmol/mg protein) were obtained by interpolation with a MDA standard curve. The antioxidant activity of tested compounds was evaluated as the percent inhibition of TBARS production with respect to control samples, using the values obtained after 30 min of incubation. IC50 values were calculated by nonlinear regression analysis.

[2] = tested on: hypertonic saline-induced IOP increase; assay: IOP lowering activity in hypertonic saline-induced IOP increase in rabbits, two concentrations (Example 16); format: in vivo, New Zealand White rabbits; conditions: for IOP change (mmHg): versus vehicle and versus basal IOP
Method: The present study evaluated the intraocular pressure lowering effect of single applications of two different concentrations (1% and 0.3%) of compound (1) in rabbits with experimental increase in IOP.
(§1) Adults male New Zealand White rabbits weighting 1.8-2.0 Kg were used in the experiments.
The transient increase in IOP was induced by the injection of 0.1 ml of hypertonic saline solution (5%) into the vitreous bilaterally (Krauss et al., 2011, Orihashi et al., 2005).
IOP was measured using a Tono-Pen XL prior to hypertonic saline injection (basal) and at 30, 60, 120 and 240 min thereafter. Vehicle (5% cremophor-EL; 0.3% DMSO; 0.2 mg/ml Benzalkonium chloride in PBS pH 6.0) or compound was instilled as eye drops immediately after hypertonic saline injection. Eyes were randomly assigned to different treatment groups. Vehicle and compound were directly instilled into the conjunctiva pocket at the desired doses. One drop of 0.4% oxybuprocaine hydrochloride (Novesine, Sandoz) was instilled in each eye immediately before each set of pressure measurements.
Results are reported in Table 3 and they are expressed as IOP change (at 60 and 120 minutes following topical administration) versus vehicle and versus IOP at basal before hypertonic saline injection.

[3] = tested on: hypertonic saline-induced IOP increase; assay: IOP lowering activity in hypertonic saline-induced IOP increase in rabbits (Example 11); format: in vivo, New Zealand White rabbits
Method: The Intraocular pressure (IOP) lowering activity of compound (1) (Example 1) was assessed in an animal model of elevated IOP.
as §1
(§2) Animals were anesthetized using 20 mg/ml/kg of sodium pentobarbital. The increase in IOP was induced by the injection of 0.1 ml of hypertonic saline solution (5%) into the vitreous bilaterally (Krauss et al., 2011, Orihashi et al., 2005).
IOP was measured using a Tono-Pen XL prior to hypertonic saline injection (basal) and at 30, 60, 90, 120, 240 and 360 min thereafter. Vehicle (5% cremophor-EL; 0.3% DMSO; 0.2 mg/ml Benzalkonium chloride (bac) in PBS pH 6.0,) or compound of the invention were instilled as eye drops immediately after hypertonic saline injection. Eyes were randomly assigned to different treatment groups. Vehicle or compounds of the invention were directly instilled into the conjunctiva pocket at the desired doses. One drop of 0.2% oxybuprocaine hydrochloride (Novesine, Sandoz) diluted 1:1 with saline was instilled in each eye immediately before each set of pressure measurements.
Results are reported in Table 2 in which the ocular hypotensive activity of compound (1) is expressed as mean average of IOP measurements at 60 and 120 minutes following topical administration.

[4] = tested on: lipidic peroxidation of membrane lipids in rat hepatic microsomes; conditions: Method B; values from Chegaev et al. (footnotes b, c); read-out: Antioxidant activity IC50 μM (CL 95%); cited from earlier work
[5] = tested on: hypertonic saline-induced IOP increase; assay: IOP lowering activity in hypertonic saline-induced IOP increase in rabbits, versus ISMN (Example 17); format: in vivo, New Zealand White rabbits; conditions: for IOP change (mmHg): dose 1%, versus vehicle and versus basal IOP
Method: The present study evaluated the intraocular pressure lowering effect of single application of compound (15) (Example 12) and of ISMN (isosorbide-5-mononitrate) used as reference compound, in an animal model of elevated IOP.
as §1, §2
IOP was measured using a Tono-Pen XL prior to hypertonic saline injection (basal) and at 30, 60, 90, 120, 240 and 360 min thereafter. Vehicle (5% cremophor-EL; 0.3% DMSO; 0.2 mg/ml Benzalkonium chloride in PBS pH 6.0,) or tested compound was instilled as eye drops immediately after hypertonic saline injection. Eyes were randomly assigned to different treatment groups. Vehicle or compounds were directly instilled into the conjunctiva pocket at the desired doses. One drop of 0.2% oxybuprocaine hydrochloride (Novesine, Sandoz) diluted 1:1 with saline was instilled in each eye immediately before each set of pressure measurements.
Results are reported in Table 4 and they are expressed as IOP change (at 30 and 60 minutes following topical administration) versus vehicle and versus IOP at basal before hypertonic saline injection.

[6] = Method A: lipid peroxidation induced by ADP-FeCl3 and NADPH, inhibition of TBARS production after 30 min incubation at 37° C.

- IC50 ([1]; Method B, footnote a: tested at 1 mM concentration): 50.5 ± 0.4 µM
Compound: COc1cc(/C=C/C(=O)O)ccc1O [Ferulic acid, reference compound]

- IC50 [1, 6]: 157 µM
Compound: CC1=C(C)C(=O)C(C(C)(C)CC(=O)O)=C(C)C1=O [Intermediate 2, 3-methyl-3-(2,4,5-trimethyl-3,6-dioxocyclohexa-1,4-dien-1-yl)butanoic acid]

- IC50 [1, 6]: 28 µM
Compound: CC1=C(C)C(=O)C(C(C)(C)CC(=O)OCCCCO[N+](=O)[O-])=C(C)C1=O [Compound (1), 4-(nitrooxy)butyl 3-methyl-3-(2,4,5-trimethyl-3,6-dioxocyclohexa-1,4-dienyl)butanoate]
- IOP change (mmHg) ([2]; dose 0.3%, 60 minutes): −5.5 ± 3.1 mmHg
- IOP change (mmHg) ([2]; dose 0.3%, 120 minutes): −5.7 ± 2.1 mmHg
- IOP change (mmHg) ([2]; dose 1%, 60 minutes): −9.1 ± 3.4 mmHg
- IOP change (mmHg) ([2]; dose 1%, 120 minutes): −9.5 ± 2.2 mmHg
- IOP reduction (in words) ([2]; single application, both doses (1% and 0.3%)): significant IOP reduction
- IOP (mmHg) ([3]; 60 minutes following topical administration (eye drops)): 29 ± 7.8 mmHg
- IOP (mmHg) ([3]; 120 minutes following topical administration (eye drops)): 18.9 ± 4.1 mmHg

Compound: COc1ccc2[nH]cc(CCNC(C)=O)c2c1 [Melatonin]
- IC50 [4]: 476 µM

Compound: O=[N+]([O-])O[C@@H]1CO[C@H]2[C@@H]1OC[C@@H]2O [ISMN, isosorbide-5-mononitrate, reference compound]
- IOP change (mmHg) ([5]; 30 minutes): −2.6 ± 3.5 mmHg
- IOP change (mmHg) ([5]; 60 minutes): −0.7 ± 2.9 mmHg

Compound: CC1=C(C)C(=O)C(C(C)(C)CC(=O)OCCCC[C@@H](CO[N+](=O)[O-])O[N+](=O)[O-])=C(C)C1=O [Compound (15), (S)-5,6-bis(nitrooxy)hexyl 3-methyl-3-(2,4,5-trimethyl-3,6-dioxocyclohexa-1,4-dienyl)butanoate]
- IOP change (mmHg) ([5]; 30 minutes): −6.5 ± 2.6 mmHg
- IOP change (mmHg) ([5]; 60 minutes): −4.9 ± 2.4 mmHg
- IOP reduction compared to ISMN (in words) ([5]; single application, 1%): significantly higher IOP reduction as compared to ISMN treated group

- IC50 ([1]; Method B: lipid peroxidation induced by FeSO4 and ascorbic acid, inhibition of TBARS production after 30 min incubation at 37° C.): 33 µM
Compound: O=C(O)/C=C/c1ccc(O)c(O)c1 [Caffeic acid, reference compound]

Compound: CC1=NN(c2ccccc2)C(=O)C1 [Edavarone]
- IC50 [4]: 17 µM
